Measurements as given in patent publication US7645881B2, “Methods for treating hepatitis C” (PTC Therapeutics, Inc., priority 2004, dated 2010).

Experiments:
[1] = system: HCV replicon; test: microbe, parasite or virus in culture; format: cell-based; conditions: Hepatitis C virus, 48 h, read-out: Replicon IC50s μM

Structure (SMILES): CC(C)(C)OC(=O)c1sc2nc3c(c(-c4cccs4)c2c1N)CCCCC3 [Compound 45, tert-butyl 3-amino-4-thiophen-2-yl-6,7,8,9-tetrahydro-5H-1-thia-10-aza-cyclohepta[f]indene-2-carboxylate]
- melting point: 202.9 to 203.1 °C
- IC50 [1]: > 2 µM

Structure (SMILES): CCOC(=O)c1sc2nc3c(c(-c4ccco4)c2c1N)CCC3 [Compound 46]
- melting point: 157.6 to 157.7 °C
- IC50 [1]: > 2 µM

Structure (SMILES): CN1CCN(C(=O)c2sc3nc4c(c(-c5cccs5)c3c2N)CCCCC4)CC1 [Compound 47]
- melting point: 115 to 118 °C
- IC50 [1]: > 2 µM

Structure (SMILES): CC(C)(C)NC(=O)c1sc2nc3c(c(-c4cccs4)c2c1N)CCCCC3 [Compound 48]
- melting point: 184 to 185 °C
- IC50 [1]: > 2 µM

Structure (SMILES): CCc1c(C)nc2sc(NC(=O)C3CCCC3)c(C#N)c2c1C [Compound 49, cyclopentanecarboxylic acid (3-cyano-5-ethyl-4,6-dimethyl-thieno[2,3-b]pyridin-2-yl)amide]
- melting point: 228 to 230 °C
- IC50 [1]: > 2 µM

Structure (SMILES): CCc1c(C)nc2sc(NC(=O)C(C)C)c(C#N)c2c1C [Compound 53]
- melting point: 189 to 190 °C
- IC50 [1]: > 2 µM

Structure (SMILES): CCc1c(C)nc2sc(S(C)(=O)=O)c(C#N)c2c1C [Compound 54]
- melting point: 219 to 220 °C
- IC50 [1]: > 2 µM

Structure (SMILES): Cc1nc2sc(C(=O)OC(C)(C)C)c(N)c2c(C)c1-c1ccccc1 [Compound 55]
- melting point: 212 to 213 °C
- IC50 [1]: > 2 µM

Structure (SMILES): N#Cc1c(C(=O)Nc2ccccc2)sc2nc3c(c(-c4cccs4)c12)CCCCC3 [Compound 57]
- melting point: 215.3 to 215.7 °C
- IC50 [1]: > 2 µM

Structure (SMILES): N#Cc1c(NC(=O)c2cccc(C(F)(F)F)c2)sc2nc3c(c(-c4cccs4)c12)CCCCC3 [Compound 58, N-(3-cyano-4-thiophen-2-yl-6,7,8,9-tetrahydro-5H-1-thia-10-aza-cyclohepta[f]inden-2-yl)-3-trifluoromethyl-benzamide]
- melting point: 226.9 to 227.1 °C
- IC50 [1]: > 2 µM

Structure (SMILES): N#Cc1c(Br)sc2nc3c(c(-c4cccs4)c12)CCCCC3 [Compound 60]
- melting point: 196.4 to 196.7 °C
- IC50 [1]: > 2 µM

Structure (SMILES): N#Cc1cccc(-c2sc3nc4c(c(-c5cccs5)c3c2C#N)CCCCC4)c1 [Compound 61]
- melting point: 159 to 162 °C
- IC50 [1]: > 2 µM

Structure (SMILES): N#Cc1c(-c2ccc3c(c2)OCO3)sc2nc3c(c(-c4cccs4)c12)CCCCC3 [Compound 62]
- melting point: 210 to 211 °C
- IC50 [1]: > 2 µM

Structure (SMILES): COc1ccc(-c2sc3nc4c(c(-c5cccs5)c3c2C#N)CCCCC4)cc1 [Compound 63, 2-(4-methoxyphenyl)-4-thiophen-2-yl-6,7,8,9-tetrahydro-5H-1-thia-10-aza-cyclohepta[f]indene-3-carbonitrile]
- melting point: 179.2 to 179.6 °C
- IC50 [1]: > 2 µM

Structure (SMILES): CCc1c(C)nc2sc(C(=O)SC(C)(C)C)cc2c1C [Compound 65]
- melting point: 109.6 to 110.2 °C
- IC50 [1]: 0.5 to 2 µM

Structure (SMILES): COCCN1CCN(CCOc2c(C)nc3sc(C(=O)OC(C)(C)C)c(N)c3c2C)CC1 [Compound 66]
- melting point: 79 to 81 °C
- IC50 [1]: > 2 µM

Structure (SMILES): Cc1nc2sc(C(=O)OC(C)(C)C)c(N)c2c(C)c1OCCN1CCOCC1 [Compound 67, t-butyl 3-amino-4,6-dimethyl-5-(2-morpholin-4-yl-ethoxy)-thieno[2,3-b]pyridine-2-carboxylate]
- melting point: 102 to 104 °C
- IC50 [1]: > 2 µM

Structure (SMILES): Cc1nc2sc(C(=O)OC(C)(C)C)c(N)c2c(C)c1OCCN1CCN(C)CC1 [Compound 71]
- melting point: 155.4 to 155.5 °C
- IC50 [1]: > 2 µM
